Measured values taken from patent US9073899B2, “Solid forms of dabigatran etexilate mesylate and processes for their preparation” (ESTEVE QUÍMICA, S.A., priority 2012, dated 2015).
Entries after “also recorded” stand apart in the source; their conditions may differ. Structures can show the parent of a compound that is named as a salt.

Legend:
Format in all cases: physicochemical
[1] = Solubility in acetonitrile (50 mg added to 1 mL with stirring); details: for solubility observation (in words): 24° C. / room temperature (20-25° C.)
Protocol: (§1) Dabigatran etexilate mesylate, Form I, 50 mg, was added to acetonitrile (1 mL) with stirring, at 24° C. The product was not soluble under these conditions. The mixture was stirred for 48 hours, filtered and analysed to be Form A of dabigatran etexilate mesylate as determined by powder XRD.
(§2) The solubility of the amorphous form is therefore >50 mg/mL. After approximately 5 minutes a solid crystallized. The mixture was stirred for 48 hours, filtered and analysed to be Form A of dabigatran etexilate mesylate as determined by powder XRD.
(§3) Dabigatran etexilate mesylate, Form A, 50 mg, was added to acetonitrile (1 mL) with stirring, at 24° C. The product was not soluble under these conditions. The mixture was stirred for 48 hours, filtered and analysed to be Form A of dabigatran etexilate mesylate as determined by powder XRD.

[2] = Stability assay: slurrying in acetonitrile, solid form by powder XRD; details: acetonitrile 1 mL, 50 mg, 24° C. (room temperature), stirred 48 hours
Protocol: (§4) Powder diffraction patterns were acquired using a PANalytical, X'Pert diffractometer using CuKalpha-radiation. The system was configured in theta-theta, transmission geometry equipped with a focusing X-ray mirror and PIXcel detector.
as §1, §2, §3

[3] = Solvent mediated transformation of mixtures of forms in 2-propanol, solid form by powder XRD; details: 2-propanol 0.6 mL, ambient temperature, orbital agitator
Protocol: as §4
(§5) Dabigatran etexilate mesylate, a mixture of Form I, 17 mg and Form A, 15 mg, was suspended in 2-propanol (0.6 mL) and the mixture agitated at ambient temperature using an orbital agitator for 64 hours. The mixture was filtered, dried under vacuum and analysed to be purely Form A of dabigatran etexilate mesylate as determined by powder XRD.
as §5, with “II, 10” for “I, 17”, “7 days.” for “64 hours.”

SMILES | solid form after slurrying (powder XRD) [2] | solubility observation (in words) ([1]; 50 mg in 1 mL acetonitrile) | other results
CCCCCCOC(=O)/N=C(\N)c1ccc(NCc2nc3cc(C(=O)N(CCC(=O)OCC)c4ccccn4)ccc3n2C)cc1 [mixture of Form I and Form A, dabigatran etexilate mesylate] | – | – | solid form after slurrying mixture of forms (powder XRD) ([3]; 64 hours): purely Form A; also recorded: converted entirely into Form A
CCCCCCOC(=O)/N=C(\N)c1ccc(NCc2nc3cc(C(=O)N(CCC(=O)OCC)c4ccccn4)ccc3n2C)cc1 [mixture of Form II and Form A, dabigatran etexilate mesylate] | – | – | solid form after slurrying mixture of forms (powder XRD) ([3]; 7 days): purely Form A; also recorded: converted entirely into Form A

Further lines, with some results ahead:

solid form after slurrying (powder XRD) [2] | SMILES | solubility observation (in words) ([1]; 50 mg in 1 mL acetonitrile) | other results
Form A | CCCCCCOC(=O)NC(=N)c1ccc(NCc2nc3cc(C(=O)N(CCC(=O)OCC)c4ccccn4)ccc3n2C)cc1 [amorphous dabigatran etexilate mesylate, dabigatran etexilate mesylate] | complete dissolution almost immediately; also recorded: completely dissolved | time until a solid crystallized from the acetonitrile solution ([1]; 50 mg in 1 mL acetonitrile, 24° C., after complete dissolution): approximately 5 minutes; solubility ([1]; organic solvent or mixture, thermodynamic from solid, acetonitrile, 24° C., 50 mg in 1 mL): > 50 mg/mL
Form A; also recorded: stable | CCCCCCOC(=O)NC(=N)c1ccc(NCc2nc3cc(C(=O)N(CCC(=O)OCC)c4ccccn4)ccc3n2C)cc1 [dabigatran etexilate mesylate Form A, dabigatran etexilate mesylate] | not soluble; also recorded: at least partly insoluble | –
converted entirely into Form A | CCCCCCOC(=O)NC(=N)c1ccc(NCc2nc3cc(C(=O)N(CCC(=O)OCC)c4ccccn4)ccc3n2C)cc1 [dabigatran etexilate mesylate Form I, dabigatran etexilate mesylate] | not soluble; also recorded: at least partly insoluble | –
